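96-well plates; 48 h exposure; 5 concentrations. Endpoints by linear interpolation between flanking doses. Not reached: highest tested concentration assigned. TGI marks complete inhibition of growth.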
Legend:
Assay in all cases: inhibition of tumour cell growth, NCI panel, 48 h
786-0 renal = system: 786-0 renal
A498 renal = system: A498 renal
A549 NSCLC = system: A549 NSCLC
ACHN renal = system: ACHN renal
CCRF-CEM leukemia = system: CCRF-CEM leukemia
COLO 205 colon = system: COLO 205 colon
DLD-1 colon = system: DLD-1 colon
DMS 114 small cell lung = system: DMS 114 small cell lung
DMS 273 small cell lung = system: DMS 273 small cell lung
EKVX NSCLC = system: EKVX NSCLC
HCC-2998 colon = system: HCC-2998 colon
HCT-15 colon = system: HCT-15 colon
HL-60(TB) leukemia = system: HL-60(TB) leukemia
HOP-62 NSCLC = system: HOP-62 NSCLC
HOP-92 NSCLC = system: HOP-92 NSCLC
HT29 colon = system: HT29 colon
IGROV1 ovarian = system: IGROV1 ovarian
K-562 leukemia = system: K-562 leukemia
KM12 colon = system: KM12 colon
KM20L2 colon = system: KM20L2 colon
M14 melanoma = system: M14 melanoma
M19-MEL melanoma = system: M19-MEL melanoma
MALME-3M melanoma = system: MALME-3M melanoma
MOLT-4 leukemia = system: MOLT-4 leukemia
NCI-H226 lung = system: NCI-H226 lung
NCI-H23 lung = system: NCI-H23 lung
NCI-H460 lung = system: NCI-H460 lung
NCI-H522 lung = system: NCI-H522 lung
OVCAR-3 ovarian = system: OVCAR-3 ovarian
OVCAR-4 ovarian = system: OVCAR-4 ovarian
OVCAR-5 ovarian = system: OVCAR-5 ovarian
OVCAR-8 ovarian = system: OVCAR-8 ovarian
RPMI-8226 leukemia = system: RPMI-8226 leukemia
RXF 393 renal = system: RXF 393 renal
RXF-631 renal = system: RXF-631 renal
SF-268 CNS = system: SF-268 CNS
SF-295 CNS = system: SF-295 CNS
SF-539 CNS = system: SF-539 CNS
SK-MEL-2 melanoma = system: SK-MEL-2 melanoma
SK-MEL-28 melanoma = system: SK-MEL-28 melanoma
SK-MEL-5 melanoma = system: SK-MEL-5 melanoma
SK-OV-3 ovarian = system: SK-OV-3 ovarian
SN12C renal = system: SN12C renal
SNB-19 CNS = system: SNB-19 CNS
SNB-75 CNS = system: SNB-75 CNS
SNB-78 CNS = system: SNB-78 CNS
SR leukemia = system: SR leukemia
TK-10 renal = system: TK-10 renal
U251 CNS = system: U251 CNS
UACC-257 melanoma = system: UACC-257 melanoma
UACC-62 melanoma = system: UACC-62 melanoma
UO-31 renal = system: UO-31 renal
CAKI-1 renal = system: CAKI-1 renal
HOP-18 NSCLC = system: HOP-18 NSCLC
LOX IMVI melanoma = system: LOX IMVI melanoma
LXFL 529 NSCLC = system: LXFL 529 NSCLC
SW-620 colon = system: SW-620 colon
XF 498 CNS = system: XF 498 CNS

## O=C1CCCC2COc3ccc(O)c1c32 (stereo not given)
786-0 renal
  TGI: > 100 µM
A498 renal
  TGI: > 100 µM
A549 NSCLC
  TGI: > 100 µM
ACHN renal
  TGI: > 100 µM
CCRF-CEM leukemia
  TGI: > 100 µM
COLO 205 colon
  TGI: > 100 µM
DLD-1 colon
  TGI: > 100 µM
DMS 114 small cell lung
  TGI: > 100 µM
DMS 273 small cell lung
  TGI: > 100 µM
EKVX NSCLC
  TGI: > 100 µM
HCC-2998 colon
  TGI: > 100 µM
HCT-15 colon
  TGI: > 100 µM
HL-60(TB) leukemia
  TGI: > 100 µM
HOP-62 NSCLC
  TGI: > 100 µM
HOP-92 NSCLC
  TGI: > 100 µM
HT29 colon
  TGI: > 100 µM
IGROV1 ovarian
  TGI: > 100 µM
K-562 leukemia
  TGI: > 100 µM
KM12 colon
  TGI: > 100 µM
KM20L2 colon
  TGI: > 100 µM
M14 melanoma
  TGI: > 100 µM
M19-MEL melanoma
  TGI: > 100 µM
MALME-3M melanoma
  TGI: > 100 µM
MOLT-4 leukemia
  TGI: > 100 µM
NCI-H226 lung
  TGI: > 100 µM
NCI-H23 lung
  TGI: > 100 µM
NCI-H460 lung
  TGI: > 100 µM
NCI-H522 lung
  TGI: > 100 µM
OVCAR-3 ovarian
  TGI: > 100 µM
OVCAR-4 ovarian
  TGI: > 100 µM
OVCAR-5 ovarian
  TGI: > 100 µM
OVCAR-8 ovarian
  TGI: > 100 µM
RPMI-8226 leukemia
  TGI: > 100 µM
RXF 393 renal
  TGI: > 100 µM
RXF-631 renal
  TGI: > 100 µM
SF-268 CNS
  TGI: > 100 µM
SF-295 CNS
  TGI: > 100 µM
SF-539 CNS
  TGI: > 100 µM
SK-MEL-2 melanoma
  TGI: > 100 µM
SK-MEL-28 melanoma
  TGI: > 100 µM
SK-MEL-5 melanoma
  TGI: > 100 µM
SK-OV-3 ovarian
  TGI: > 100 µM
SN12C renal
  TGI: > 100 µM
SNB-19 CNS
  TGI: > 100 µM
SNB-75 CNS
  TGI: > 100 µM
SNB-78 CNS
  TGI: > 100 µM
SR leukemia
  TGI: > 100 µM
TK-10 renal
  TGI: > 100 µM
U251 CNS
  TGI: > 100 µM
UACC-257 melanoma
  TGI: > 100 µM
UACC-62 melanoma
  TGI: > 100 µM
UO-31 renal
  TGI: > 100 µM

## COS(=O)CCOC(=O)c1ccccc1SSc1ccccc1C(=O)OCCS(=O)OC (stereo not given)
786-0 renal
  TGI: 38.2 µM
A498 renal
  TGI: > 100 µM
A549 NSCLC
  TGI: > 100 µM
ACHN renal
  TGI: > 100 µM
CAKI-1 renal
  TGI: 73.1 µM
CCRF-CEM leukemia
  TGI: > 100 µM
COLO 205 colon
  TGI: 49.1 µM
DLD-1 colon
  TGI: > 100 µM
DMS 114 small cell lung
  TGI: 34.1 µM
DMS 273 small cell lung
  TGI: > 100 µM
EKVX NSCLC
  TGI: > 100 µM
HCT-15 colon
  TGI: 85.9 µM
HOP-18 NSCLC
  TGI: > 100 µM
HOP-62 NSCLC
  TGI: > 100 µM
HOP-92 NSCLC
  TGI: 74.2 µM
HT29 colon
  TGI: 28.8 µM
IGROV1 ovarian
  TGI: > 100 µM
K-562 leukemia
  TGI: 69.6 µM
KM12 colon
  TGI: > 100 µM
KM20L2 colon
  TGI: > 100 µM
LOX IMVI melanoma
  TGI: 61.6 µM
LXFL 529 NSCLC
  TGI: 47.2 µM
M14 melanoma
  TGI: 57.8 µM
M19-MEL melanoma
  TGI: > 100 µM
MALME-3M melanoma
  TGI: 63.7 µM
MOLT-4 leukemia
  TGI: 22.8 µM
NCI-H23 lung
  TGI: 44.4 µM
NCI-H460 lung
  TGI: > 100 µM
NCI-H522 lung
  TGI: 18.6 µM
OVCAR-3 ovarian
  TGI: 54.5 µM
OVCAR-4 ovarian
  TGI: 34.9 µM
OVCAR-5 ovarian
  TGI: > 100 µM
OVCAR-8 ovarian
  TGI: 81.2 µM
RPMI-8226 leukemia
  TGI: 57.7 µM
RXF 393 renal
  TGI: 28 µM
SF-268 CNS
  TGI: > 100 µM
SF-295 CNS
  TGI: > 100 µM
SF-539 CNS
  TGI: 65.6 µM
SK-MEL-2 melanoma
  TGI: > 100 µM
SK-MEL-28 melanoma
  TGI: > 100 µM
SK-MEL-5 melanoma
  TGI: > 100 µM
SK-OV-3 ovarian
  TGI: > 100 µM
SN12C renal
  TGI: 85.9 µM
SNB-19 CNS
  TGI: > 100 µM
SNB-75 CNS
  TGI: 70.2 µM
SNB-78 CNS
  TGI: > 100 µM
SW-620 colon
  TGI: 87.4 µM
TK-10 renal
  TGI: > 100 µM
U251 CNS
  TGI: > 100 µM
UACC-257 melanoma
  TGI: 38.8 µM
UACC-62 melanoma
  TGI: 51.5 µM
UO-31 renal
  TGI: 43.5 µM
XF 498 CNS
  TGI: 62.8 µM
